Publication PMC4608362, “The therapeutic effect of chlorogenic acid against Staphylococcus aureus infection through sortase A inhibition” (Frontiers in Microbiology, 2015)

Columns and labels:
Details in all cases: read-out: Binding constants KA (1 × 10^5) L⋅mol^-1 (converted)
Sortase A (SrtA) [1] = target: T1, Sortase A (SrtA) (Staphylococcus aureus, UniProt Q2FV99, C184A); assay: fluorescence spectroscopy quenching with purified mutant, binding constant KA, n = […]
T1 construct: SrtAΔN59 (residues 60–206)

Sortase A (SrtA) [2] = target: T2, Sortase A (SrtA) (Staphylococcus aureus, UniProt Q2FV99); assay: fluorescence spectroscopy quenching, binding constant KA, n = […]; also FRET inhibition of purified SrtAΔN59 (IC50 […])
T2 construct: SrtAΔN59 (residues 60–206)

Sortase A (SrtA) [3] = target: T3, Sortase A (SrtA) (Staphylococcus aureus, UniProt Q2FV99, G192A); assay: fluorescence spectroscopy quenching with purified mutant, binding constant KA, n = […]
T3 construct: SrtAΔN59 (residues 60–206)

## O=C(/C=C/c1ccc(O)c(O)c1)O[C@@H]1C[C@](O)(C(=O)O)C[C@@H](O)[C@H]1O [CHA, chlorogenic acid]
Sortase A (SrtA) [1]
  Kd: 2130 nM
Sortase A (SrtA) [2]
  Kd: 1120 nM
Sortase A (SrtA) [3]
  Kd: 2000 nM
